According to patent US12559553B2, “IL-31 modulators for treating FXR-induced pruritus” (Gilead Sciences, Inc., priority 2021, dated 2026):
Values joined by “and” are separate entries in the source; they are usually repeats but may differ in a detail not shown here. Equal values may be shown once. “Also recorded” adds a separate entry of the source.

Assays:
IL-31 [1] = assay: Serum IL-31 pre-dose and post-dose, CILO phase 1 study in healthy volunteers; type: in vivo, human
Experimental: In the CILO phase 1 study, serum IL-31 levels were assessed in pre-dose and post-dose (from 1 to 8 hr) samples from the healthy volunteers (HVs) with placebo or CILO 30 mg, 100 mg or 300 mg. The HVs with CILO 100 mg or 300 mg had elevated serum IL-31 levels with peak concentration at 4-6 hr post-dose samples (data not shown). A similar intensive sampling study was also performed in the CILO NASH study. IL-31 levels in the serially collected samples were compared in NASH patients and HVs with CILO 100 mg. In HVs with CILO 100 mg, serum IL-31 achieved the peak concentration of 0.22 pg/mL and 2.6 fold increase from pre-dose (data not shown). NASH patients with the same dose had more increased serum IL-31 than HV.

IL-4 = assay: Serum IL-4 and other inflammatory markers in the CILO NASH study; type: in vivo, human; settings: NASH patients
Experimental: IL-31 is expressed and secreted by activated T helper 2 (Th2) cell. IL-4, a type II immune cytokine, was associated with activation of Th2 cells and serum IL-31 levels in patients with atopic dermatitis. Serum IL-4 levels were assessed in the CILO NASH and PSC studies.

FGF-19 [2] = assay: FGF-19 target engagement in healthy volunteers; type: in vivo, human; settings: CILO 100 mg, 4 hr post-dose
Description: (§1) Activation of FXR in the intestinal epithelial cells induces FGF-19 secretion. FGF-19 suppressed CYP7A1 expression, which is a key enzyme to […] 7α-hydroxycholesterol. 7α-hydroxycholesterol is metabolized into 7α-hydroxy-4-cholesten-3-one (C4). The increased FGF-19 and reduced C4 levels in circulation are target engagement assessments for FXR agonists.

IL-31 [3] = assay: Serum IL-31 (SIMOA assay), Phase 2 study of cilofexor in PSC patients; type: in vivo, human
Experimental: (§2) Serum IL-31 (SIMOA® assay; Myriad, Austin, TX) was measured in two Phase 2 studies of cilofexor (CILO, a non-steroidal FXR agonist) in PSC (n=52) and PBC (n=71). In all studies, patients were randomized 2:2:1 to CILO 100 mg, 30 mg, or placebo daily. Associations between serum IL-31 and pruritus-related adverse events and patient-reported outcomes (Visual Analog Scale [VAS] and 5-D Itch) were determined.

[4] = test system: 7α-hydroxy-4-cholesten-3-one (C4); assay: C4 levels in circulation, CILO NASH study; type: in vivo, human
Description: as §1

[5] = Cholestasis (ALP and BA levels) in PSC and PBC patients; type: in vivo, human
FGF-19 [6] = assay: FGF-19 target engagement in NASH patients; type: in vivo, human
Description: as §1

IL-31 [7] = assay: Serum IL-31 (SIMOA assay), Phase 2 study of cilofexor in PBC patients; type: in vivo, human
Experimental: as §2, with “determined. In PBC, IL-31 correlated to VAS (ρ=0.42, p<0.001) and 5-D Itch (ρ=0.58, p<0.001) (Table 6).” for “determined.”

IL-31 [8] = assay: Serum IL-31 (SIMOA assay), Phase 2 study of cilofexor in non-cirrhotic NASH patients; type: in vivo, human; settings: for Serum IL-31, median (IQR) / Increase of IL-31 in patients with grade 2 or 3 pruritus versus the others: NASH
Experimental: as §2, with “(SIMOA©assay;” for “(SIMOA® assay;”, “a” for “two”, “study” for “studies”, “non-cirrhotic NASH (n=140) patients. Patients” for “PSC (n=52) and PBC (n=71). In all studies, patients”

IL-31 [9] = assay: Serum IL-31 in serially collected samples (intensive sampling), CILO NASH study; type: in vivo, human; settings: NASH patients, CILO 100 mg
Experimental: A similar intensive sampling study was also performed in the CILO NASH study. IL-31 levels in the serially collected samples were compared in NASH patients and HVs with CILO 100 mg. In HVs with CILO 100 mg, serum IL-31 achieved the peak concentration of 0.22 pg/mL and 2.6 fold increase from pre-dose (data not shown). NASH patients with the same dose had more increased serum IL-31 than HV. […] Activation of FXR in the intestinal epithelial cells induces FGF-19 secretion. FGF-19 suppressed CYP7A1 expression, which is a key enzyme to […] 7α-hydroxycholesterol. 7α-hydroxycholesterol is metabolized into 7α-hydroxy-4-cholesten-3-one (C4). The increased FGF-19 and reduced C4 levels in circulation are target engagement assessments for FXR agonists.

[10] = Pruritus adverse events, Phase 2 study of cilofexor in PSC patients; type: in vivo, human
Experimental: as §2

human IL-31 = assay: IL-31 in chimeric PXB mice with human hepatocytes treated with OCA; type: in vivo; settings: OCA 10 mg/kg QD for 18 days
[11] = serially collected blood samples, 100 mg CILO, 6 hr post-dose
[12] = PBC, serially collected blood samples, 100 mg CILO, 5 hr post-dose

Structure (SMILES): O=C(O)c1ccnc(N2CC(O)(c3ccc(OCc4c(-c5c(Cl)cccc5Cl)noc4C4CC4)cc3Cl)C2)c1 [CILO, cilofexor]
- Serum IL-31 peak concentration (IL-31 [1]; CILO 100 mg): 0.22 pg/mL
- Serum IL-31 levels post-dose (IL-31 [1]; CILO 100 mg or 300 mg): elevated
- Time of peak serum IL-31 concentration post-dose (IL-31 [1]; CILO 100 mg or 300 mg): 4 to 6 h
- Serum IL-31 increase from pre-dose (IL-31 [1]; CILO 100 mg, at peak): 2.6 fold
- Effect on other inflammatory markers (IL-4 and IL-18) (IL-4): without changing
- Effect on serum IL-4 (IL-4): did not elevate
- FGF-19 peak concentration (FGF-19 [2]): 591.6 pg/mL
- Dose-dependent effect on serum IL-31 (IL-31 [3]): not observed
- Effect on serum IL-31 levels (IL-31 [3]; 12-week treatment): did not alter; also recorded: no effect
- C4 levels compared to placebo ([4]; W24, CILO 30 mg): significantly declined
- C4 levels compared to placebo ([4]; W24, CILO 100 mg): significantly declined
- Effect on cholestasis (ALP and BA levels) [5]: improved cholestasis
- FGF-19 peak concentration (FGF-19 [6]; NASH patients, CILO 100 mg, 4 hr post-dose): 829.7 pg/mL
- FGF-19 increase from pre-dose (FGF-19 [6]; [11]): 45.9 fold
- FGF-19 peak concentration (FGF-19 [6]; [11]): around 1826 pg/mL
- FGF-19 median at pre-dose (FGF-19 [6]; serially collected blood samples, 100 mg CILO, pre-dose): 39.8 pg/mL
- Dose-dependent effect on serum IL-31 (IL-31 [7]; PBC patients): not observed
- Effect on serum IL-31 levels (IL-31 [7]; PBC patients, fasting samples at Weeks 1, 4 and 12, compared to placebo): did NOT change; also recorded: no effect; also recorded: did not alter
- IL-31 increase from pre-dose (IL-31 [7]; [12]): 2.5 fold
- IL-31 level post-dose (IL-31 [7]; [12]): 7.4 pg/mL
- IL-31 median level at pre-dose (IL-31 [7]; PBC, serially collected blood samples, 100 mg CILO, pre-dose): 3 pg/mL
- Effect on serum IL-31 (IL-31 [8]; NASH patients, week 1 to week 24, 30 mg and 100 mg): increased serum IL-31 in a dose-dependent manner
- Serum IL-31, median (IQR) (IL-31 [8]; CILO 30 mg, Baseline): 0.09 pg/mL
- Serum IL-31, median (IQR) (IL-31 [8]; CILO 30 mg, Week 1): 0.15 pg/mL
- Serum IL-31, median (IQR) (IL-31 [8]; CILO 30 mg, Week 4): 0.105 pg/mL
- Serum IL-31, median (IQR) (IL-31 [8]; CILO 30 mg, Week 8): 0.14 pg/mL
- Serum IL-31, median (IQR) (IL-31 [8]; CILO 30 mg, Week 12): 0.145 pg/mL
- Serum IL-31, median (IQR) (IL-31 [8]; CILO 30 mg, Week 24): 0.15 (0.062, 0.27) pg/mL and 0.15 pg/mL
- Serum IL-31, median (IQR) (IL-31 [8]; CILO 100 mg, Baseline): 0.083 pg/mL
- Serum IL-31, median (IQR) (IL-31 [8]; CILO 100 mg, Week 1): 0.21 pg/mL
- Serum IL-31, median (IQR) (IL-31 [8]; CILO 100 mg, Week 4): 0.24 pg/mL
- Serum IL-31, median (IQR) (IL-31 [8]; CILO 100 mg, Week 8): 0.26 pg/mL
- Serum IL-31, median (IQR) (IL-31 [8]; CILO 100 mg, Week 12): 0.26 pg/mL
- Serum IL-31, median (IQR) (IL-31 [8]; CILO 100 mg, Week 24): 0.26 (0.13, 0.82) pg/mL and 0.26 pg/mL
- Increase of IL-31 in patients with grade 2 or 3 pruritus versus the others (IL-31 [8]; W1): 5.1 fold
- Increase of IL-31 in patients with grade 2 or 3 pruritus versus the others (IL-31 [8]; W4): 2.9 fold
- Increase of IL-31 in patients with grade 2 or 3 pruritus versus the others (IL-31 [8]; W8): 3.8 fold
- Increase of IL-31 in patients with grade 2 or 3 pruritus versus the others (IL-31 [8]; W12): 4.5 fold
- Increase of IL-31 in patients with grade 2 or 3 pruritus versus the others (IL-31 [8]; W24): 7 fold
- Serum IL-31 peak concentration (IL-31 [9]; 4-6 hr post-dose): 13 pg/mL and 12 to 13 pg/mL
- Serum IL-31 increase from pre-dose (IL-31 [9]; at peak): 23.6 fold and 21.8-23.6 fold
- Effect on pruritus [10]: did not exacerbate pruritus
- Any Grade pruritus, patients ([10]; CILO 30 mg): 5
- Grade 1 pruritus, patients ([10]; CILO 30 mg): 2
- Grade 2 pruritus, patients ([10]; CILO 30 mg): 1
- Grade 3 pruritus, patients ([10]; CILO 30 mg): 2
- Patients who reported grade 2 or 3 pruritus ([10]; CILO 30 mg): 3 subjects
- Any Grade pruritus, patients ([10]; CILO 100 mg): 8
- Grade 1 pruritus, patients ([10]; CILO 100 mg): 5
- Grade 2 pruritus, patients ([10]; CILO 100 mg): 1
- Grade 3 pruritus, patients ([10]; CILO 100 mg): 2
- Patients who reported grade 2 or 3 pruritus ([10]; CILO 100 mg): 3 subjects

Structure (SMILES): CC[C@H]1[C@@H](O)[C@@H]2[C@H](CC[C@]3(C)[C@@H]([C@H](C)CCC(=O)O)CC[C@@H]23)[C@@]2(C)CC[C@@H](O)C[C@@H]12 [OCA, obeticholic acid]
- Hepatic IL-31 mRNA expression vs vehicle (human IL-31): 7.8 fold
